Assay in all cases: growth of human tumour cells (NCI), 48 h
Test [1] concerns NCI-H460 lung.
For test [2], the system named is LOX IMVI melanoma.
Test [3] has as its system NCI-H522 lung.
For test [4], the system named is BT-549 breast.
Test [5] has as its system MOLT-4 leukemia.
For test [6], the system named is M14 melanoma.
Test [7] deals with OVCAR-4 ovarian.
Test [8] relates to HCT-15 colon.
Test [9] deals with HL-60(TB) leukemia.
Test [10] deals with SK-MEL-5 melanoma.

Values joined by “and” are separate entries in the source; they are usually repeats but may differ in a detail not shown here. Equal values may be shown once.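 The compound was tested at five concentrations on cells cultured in 96-well plates, with a 48-hour exposure period. GI50: concentration for 50% inhibition of growth. TGI marks complete inhibition of growth.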 Where only a bound is given, the exact number is not on record here.

For `COc1cc2c(cc1OC)-c1ccc3cc4c(cc3c1N(CCN(C)C)C2)OCO4`, the GI50 was 0.256 µM in test [1]; 0.271 µM in test [2]; 0.188 µM in [3]; 1.15 µM in [4]; 0.158 µM in [5]; 0.43 µM in [6]. In addition, the GI50 in test [7] was 0.911 µM; in [8] it was 4.09 µM; in test [9] it was 0.25 µM; in [10] it was 1.39 µM. In addition, the TGI in test [1] was 1.2 µM; in test [2], 1.32 µM; in [3] it was 1.56 µM; in test [4], 11.9 µM; in test [5] it was 2.57 µM; in [6], 4.85 µM. Moreover, the TGI came out at 13.3 µM in test [7], 17.6 µM in [8], 0.681 µM in test [9] and 3.01 µM in test [10].
As to `Nc1nc2ccc3[nH]ncc3c2c2c1CCCC2`, the GI50 is 1.6 µM in test [1]; 1.29 µM in test [2]; 2.17 µM in test [3]; 1.38 µM in [4]; 2.81 µM in [5]; 1.53 µM in test [6]. Also, the GI50 in test [7] is 3.6 µM; in test [8] it was 1.88 µM; in [9], 2.31 µM; in [10], 1.54 µM. In addition, the TGI in test [1] stood at 4.56 µM; in [2], 2.82 µM; in test [3] it was 5.88 µM; in [4] it was 3.34 µM; in [5] it was 10.8 µM; in test [6] it was 3.23 µM. For the same compound, the TGI was 7.92 µM in [7], 7.22 µM in test [8], 5.72 µM in [9] and 4.08 µM in test [10].
Take `N#C/C(=C\Nc1ccccn1)C(=O)c1ccco1`: the TGI in test [1], in test [2], in test [3], in [4], in test [5] and in test [6] was > 100 µM in each case. The TGI in test [7], in test [8], in test [9] and in test [10] was > 100 µM in each case.
On to `O=CC(Br)C(Br)c1ccccc1` (stereo not drawn), for which the GI50 is 14.5 µM in test [1]; 0.665 µM in test [2]; 1.72 µM in [3]; 2.77 µM in test [4]; 0.904 µM in [5]; 2 µM in test [6]. In addition, the GI50 in test [7] was 1.69 µM; in test [8], 0.913 µM; in test [9], 0.462 µM; in test [10], 3.58 µM. For the same compound, the TGI came to 31.2 µM in [1]; 1.83 µM in [2]; 3.56 µM in [3]; 8.47 µM in test [4]; 3.89 µM in test [5]; 4.88 µM in test [6]. Further, the TGI in test [7] is 3.14 µM; in test [8] it was 2.93 µM; in test [9], 2.32 µM; in test [10], 13.8 µM.
As to `CN1CCC(C(=O)Nc2n[nH]c3nc(-c4ccc(O)cc4)c(Br)cc23)CC1`, the GI50 in test [1] is 1.97 µM and 1.1 µM; in [2] it was 0.574 µM and 0.661 µM; in test [3], 0.599 µM and 0.603 µM; in test [4] it was 1.6 µM and 2.31 µM; in [5], 1.88 µM and 1.51 µM; in test [6], 3.47 µM and 4.68 µM. The GI50 in test [7] was 0.986 µM and 1.17 µM; in test [8] it was 6.77 µM and 9.83 µM; in [9], 0.988 µM and 0.333 µM; in test [10], 0.599 µM and 1.3 µM. In addition, the TGI in test [1] was > 25 µM; in test [2], 5.45 µM and > 12.2 µM; in [3] it was 1.52 µM and 1.62 µM; in [4], 16.4 µM and 16.9 µM; in test [5], > 25 µM and 18.9 µM; in test [6] it was 8.42 µM and 9.62 µM. Moreover, the TGI was > 12.4 µM and 6.27 µM in [7]; > 25 µM in [8]; 4 µM and 1.25 µM in test [9]; 2.3 µM and 4.14 µM in test [10].
For `C[n+]1c2ccccc2c(Nc2ccc(NS(=O)(=O)CCCCN=C(N)N)cc2)c2ccc(N)cc21`, the TGI in [1] is 12.1 µM; in [2] it was > 100 µM; in [3] it was 25.6 µM; in test [4] it was > 100 µM; in test [6], > 100 µM; in test [7] it was > 100 µM. The TGI in test [8] is > 100 µM; in test [9], > 56.1 µM; in test [10] it was 15.2 µM. Further, the GI50 in test [2] was 1.82 µM; in [3], 2.03 µM; in [4], 35.2 µM; in test [5], 0.0212 µM; in test [6], 4.14 µM; in test [7] it was 5.4 µM. Also, the GI50 in [8] was 50.9 µM; in test [9], 1.64 µM; in test [10], 1.2 µM.
As for `CN1C(=O)C(=Cc2cn(Cc3ccccc3)c3ccccc23)C(=O)N(C)C1=O`, the GI50 in [1] is 1.24 µM; in test [2], 35.3 µM; in [3], > 100 µM; in test [4] it was 56.5 µM; in test [5] it was 68.3 µM; in test [6], 48.7 µM. The GI50 in test [7] is 5.85 µM; in test [8], > 95.6 µM; in test [9] it was > 43.4 µM; in [10] it was 25.7 µM. In addition, the TGI in test [1], in [2], in test [3], in [4], in test [5] and in test [6] was > 100 µM in each case. Further, the TGI in test [7], in test [8], in [9] and in test [10] was > 100 µM in each case.
With `COc1c2c(c(CC=C(C)C)c3oc(=O)c(-c4ccc(O)cc4)c(O)c13)OC(C)(C)C=C2`, the TGI in [1] was 68.4 µM; in test [2], > 100 µM; in test [3] it was 62.9 µM; in test [4], > 100 µM; in test [5] it was 91 µM; in test [6] it was 73.3 µM. Moreover, the TGI in test [7] came to 58 µM; in test [8], 60.7 µM; in test [9], 51 µM; in [10], 25.8 µM.

For the origin of these results see PubChem BioAssay (NCI).
